Measured values as given in PubChem BioAssay (NCI).
“And” between values parts separate entries of the source, which are not always exact repeats. Identical values can stand only once.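 Method: 48-hour compound exposure of cells in 96-well plates, five concentrations, linear interpolation of endpoints. The concentration for 50% growth inhibition is given as GI50. TGI is the concentration that stops growth completely.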

What was measured:
Experiment in all cases: NCI tumour cell line growth inhibition, 48 h
HOP-62 NSCLC = tested on: HOP-62 NSCLC
COLO 205 colon = tested on: COLO 205 colon
PC-3 prostate = tested on: PC-3 prostate
786-0 renal = tested on: 786-0 renal
BT-549 breast = tested on: BT-549 breast
A498 renal = tested on: A498 renal
SF-295 CNS = tested on: SF-295 CNS
RPMI-8226 leukemia = tested on: RPMI-8226 leukemia
MOLT-4 leukemia = tested on: MOLT-4 leukemia
CCRF-CEM leukemia = tested on: CCRF-CEM leukemia

Row | SMILES | GI50 (HOP-62 NSCLC) | TGI (HOP-62 NSCLC) | GI50 (COLO 205 colon) | TGI (COLO 205 colon) | GI50 (PC-3 prostate) | TGI (PC-3 prostate) | GI50 (786-0 renal) | TGI (786-0 renal) | GI50 (BT-549 breast) | TGI (BT-549 breast) | GI50 (A498 renal) | TGI (A498 renal) | GI50 (SF-295 CNS) | TGI (SF-295 CNS) | GI50 (RPMI-8226 leukemia) | TGI (RPMI-8226 leukemia) | GI50 (MOLT-4 leukemia) | TGI (MOLT-4 leukemia) | TGI (CCRF-CEM leukemia)
1 | CN1c2ccccc2C(C)(C)C12CC(c1ccc(Cl)c(S(=O)(=O)N3CCCC3)c1)=NO2 (stereo not drawn) | 83.7 µM | > 100 µM | > 100 µM | > 100 µM | 59 µM | > 100 µM | > 100 µM | > 100 µM | > 100 µM | > 100 µM | > 100 µM | > 100 µM | > 100 µM | > 100 µM |  |  |  |  | 
2 | COc1cc2c3c(n(CCCNCCN4CCOCC4)c(=O)c2cc1OC)-c1cc2c(cc1C3=O)OCO2 |  | 0.79 µM and 1.93 µM | 2.01 µM and 7.31 µM | 50 µM and 45.8 µM | 1.9 µM and 1.59 µM | 9.18 µM and 4.91 µM | 1.97 µM | 5.23 µM | 7.64 µM and 7.01 µM | 16.6 µM and 29.5 µM | 4.1 µM and 16 µM | 11.4 µM and 35.8 µM | < 0.005 µM and 0.0343 µM | 2.13 µM and 1.55 µM | 0.122 µM and 0.0199 µM | 1.14 µM and 0.681 µM | < 0.005 µM | 19.7 µM | 
3 | CC1=N/C(=C\c2cccc3ccccc23)C(=O)O1 |  | > 100 µM |  | > 100 µM |  |  |  | > 100 µM |  |  |  | > 100 µM |  | > 100 µM |  | > 100 µM |  | > 100 µM | > 100 µM
4 | O=C1CCC(=O)C12CCc1cccc(O)c12 |  | > 100 µM |  | > 100 µM |  |  |  | > 100 µM |  |  |  |  |  | > 100 µM |  | > 100 µM |  |  | 
5 | C=CCC(C)(C(=O)NCCC)C(=O)c1ccccc1O (stereo not drawn) |  | > 100 µM |  | > 100 µM |  |  |  | > 100 µM |  |  |  | > 100 µM |  |  |  | > 100 µM |  | > 100 µM | > 100 µM
6 | O=C(/C=C/c1ccc(Cl)cc1)c1ccncc1 |  | > 100 µM |  | > 100 µM |  |  |  | > 100 µM |  |  |  | 88.7 µM |  | > 100 µM |  | > 100 µM |  | 60.3 µM | > 100 µM
7 | Cc1ccc([Se][Se]c2ccc(C)cc2)cc1 |  | > 100 µM |  | > 100 µM |  |  |  | 46.5 µM |  |  |  | > 100 µM |  | 61.6 µM |  | 31.8 µM |  | > 100 µM | 19.7 µM
8 | CN(Cc1ccccc1)C1(N(C)Cc2ccccc2)CC1 |  | > 100 µM |  | > 100 µM |  |  |  | > 100 µM |  |  |  | > 100 µM |  | > 100 µM |  |  |  | > 100 µM | > 100 µM
9 | Cc1[nH]nc(C(=O)Nc2n[nH]c3ccccc23)c1[N+](=O)[O-] | > 100 µM | > 100 µM | 63.4 µM | > 100 µM | > 100 µM | > 100 µM | > 100 µM | > 100 µM | 26.5 µM | > 100 µM | > 76.6 µM | > 100 µM | > 100 µM | > 100 µM | > 71.5 µM | > 100 µM | > 62.5 µM | 97.7 µM | 
10 | O=C1NC(=S)NC(=O)C1=Cc1ccc2ccccc2n1 |  | > 100 µM |  | > 100 µM |  |  |  | > 100 µM |  |  |  | > 100 µM |  | > 100 µM |  | > 100 µM |  | > 100 µM | > 100 µM
11 | CN(C)CCNC(=O)c1cccc2c1nc(-c1ccccn1)c1ccccc12 |  | 36.2 µM |  | 24.8 µM |  |  |  | 43.7 µM |  |  |  | 27.2 µM |  | 41.1 µM |  |  |  |  | 51.7 µM
12 | COc1ccc(/C=C/C(C(=O)O)C(=O)O)cc1 |  | > 100 µM |  | > 100 µM |  |  |  | > 100 µM |  |  |  |  |  | > 100 µM |  | > 100 µM |  | 84.8 µM | 82.3 µM
13 | Cc1nn(C)c(=S)n(C)c1=O |  | 11.4 µM |  | 15.4 µM |  |  |  | 20.3 µM |  |  |  | 37.7 µM |  | > 100 µM |  | 14.8 µM |  | > 100 µM | > 100 µM
14 | N#Cc1ccc2oc3ccc(C#N)cc3c(=O)c2c1 |  |  |  | > 100 µM |  | 55 µM |  | 68 µM |  | 53.7 µM |  | 28.9 µM |  | 47.1 µM |  | 62.4 µM |  | 46.9 µM | 74 µM
15 | COc1ccc2c(c1)C(=O)c1c-2n(CCCCl)c(=O)c2cc(N(C)C)ccc12 | 26.6 µM | 69 µM | > 100 µM | > 100 µM | 34.5 µM | > 100 µM | 33.1 µM | > 100 µM | 26 µM | > 100 µM | 95.6 µM | > 100 µM | > 100 µM | > 100 µM |  |  | > 100 µM | > 100 µM | 
16 | CC1=C(c2cc(C(=O)Nc3cccc(C(F)(F)F)c3)nc(NC#N)n2)Sc2ccccc2N1 |  | > 100 µM |  | > 100 µM |  |  |  | > 100 µM |  |  |  | > 100 µM |  | > 100 µM |  | > 100 µM |  | > 100 µM | > 100 µM
17 | COc1ccc(S(=O)(=O)N/N=C(\C)CN2C(=O)c3ccccc3C2=O)cc1 |  | > 100 µM |  | > 100 µM |  |  |  | > 100 µM |  |  |  | > 100 µM |  | > 100 µM |  | > 100 µM |  | > 100 µM | > 100 µM
18 | O=C(Nc1ccccc1F)c1ccc(NC2=C(Cl)C(=O)N(Cc3ccccc3)C2=O)cc1 |  |  | 9.03 µM | 21 µM | 3.39 µM | 12.8 µM | 14 µM | 27 µM | 3.13 µM | 9.62 µM | 16.6 µM | 30.2 µM | 10.7 µM | 22.6 µM | 1.83 µM | 3.92 µM | 2.45 µM | 6.79 µM | 
19 | C1C[OH+]CC[OH+]CC[OH+]CC[OH+]CC[OH+]CC[OH+]1.[Cl-].[Ta+5] | > 100 µM | > 100 µM | > 100 µM | > 100 µM |  |  | > 100 µM | > 100 µM |  |  | > 100 µM | > 100 µM | > 100 µM | > 100 µM | > 100 µM | > 100 µM | > 100 µM | > 100 µM | 
20 | Cc1nn(C)c(=O)c2nn(-c3ccccc3)c(C)c12 |  | > 100 µM |  | > 100 µM |  |  |  | > 100 µM |  |  |  | > 100 µM |  | > 100 µM |  | > 100 µM |  | > 100 µM | > 100 µM
21 | Cc1cccc(N2C(=O)C(=O)C(c3nc4ccccc4s3)C(=O)C2=O)c1C |  | > 100 µM |  | > 100 µM |  |  |  | > 100 µM |  |  |  | > 100 µM |  | > 100 µM |  | > 100 µM |  | > 100 µM | > 100 µM
